Results on nine compounds are retold here after article PMC7609463 (Frontiers in Pharmacology, 2020).

For one data set, the system named is dengue virus. Set-up: method as in Constant et al., 2018. The conditions noted are these: ref Constant et al., 2018; read-out: EC50 of inhibiting viral growth; cited from earlier work.
A further data set addresses viral proteinase NS2B/3. Also on record: method as in Constant et al., 2018. The conditions noted are these: ref Constant et al., 2018; read-out: IC50 of enzymatic activity of the viral proteinase; cited from earlier work.
The next data set relates to ZIKVpro. The settings on record: 2017, read-out: IC50 against ZIKVpro, cited from earlier work.
For data set [1], the target named is T1, ZIKV NS2B-NS3 protease (ZIKVpro) (Zika virus, UniProt A0A024B7W1).
T1 construct: The cDNA coding for residues 45–96 of ZIKV NS2B; the N terminus of NS3 (residues 1–177); poly-histidine tag (C); made in house; host or cells: E. coli BL21(DE3), pET28a (NcoI/XhoI)
The data set can be described thus: fluorescence-based ZIKVpro protease inhibition screening assay (Bz-nKKR-AMC substrate). It is filed as biochemical. The settings on record: for IC50: 150 nM ZIKVpro, 1 h preincubation at 37 °C, 50 μM Bz-nKKR-AMC; for inhibition at 20 µM: read-out: Inhibition Activity% (primary high-throughput screening).
Procedure: For initial screening, each compound was dissolved in dimethyl sulfoxide (DMSO) to obtain 20 mM stock solution. […] The reaction was started by addition of Bz-nKKR-AMC substrate at 50 µM and fluorescence readings were measured at 30 s intervals over 10 min using Enspire (Perkin Elmer, USA) at excitation wavelength(λex) at 360 nm and emission wavelength(λem) at 460 nm. Assays were carried out as triplicates at 37 °C.
The protease activity of the DMSO control was set as 100%. The protease activities with compounds were set as percentage of the DMSO control. Data was fitted using the log(inhibitor) vs. response - variable slope (four parameters) model within the graphpad prism 7.0 software.
Inhibition activity=100-[S–S0/C−C0]×100%
S: the RFUs of the test sample (enzyme, inhibitor, buffer, and substrate) after 10 min of reaction
S0: the RFUs of the tested samples at time zero.
C: the RFUs of the control (enzyme, buffer, and substrate) after 10 min of reaction
C0: the RFUs of the control at time zero

The target of data set [2] is T2, ZIKV NS2B-NS3 protease (ZIKVpro, gZiPro) (Zika virus, UniProt A0A024B7W1).
T2 construct: The cDNA coding for residues 45–96 of ZIKV NS2B; the N terminus of NS3 (residues 1–177); poly-histidine tag (C); made in house; host or cells: E. coli BL21(DE3), pET28a (NcoI/XhoI)
The data set can be described thus: Octet bio-layer interferometry binding assay with biotinylated ZIKVpro (gZiPro). The conditions noted are these: for binding to ZIKVpro in Octet assay: compound 50 μM; for Response (Octet binding assay): compound 50 µM, biotinylated ZIKVpro, binding profile as nm shift.
Source text: Intermolecular interactions between gZiPro and selected compounds were detected by using BLI technology on the ForteBio Octet Red system (Pall FortéBio, Inc, Menlo Park, USA). The biotinylated protein gZipro was immobilized onto super streptavidin biosensors (Pall FortéBio Inc.), and then blocked with biocytin (Sigma). […] Sensorgrams were double-referenced, corrected for solvent effects, and then fit using OctetRed user software (Pall FortéBio Inc.). The binding profile of each sample was summarized as an “nm shift” (the wavelength or spectral shift in nanometers), which represented the difference between the start and end of the kinetic cycle. Steady-state and kinetic responses were fit to a simple binding model to obtain values for association (Kon) and dissociation (Koff) rate constants and the equilibrium dissociation constant (Kd). The Langmuir’s 1:1 binding model was applied to fit the interferometry data.

For data set [3], the system named is ZIKV. The data set can be described thus: protection of Vero E6 cell viability against ZIKV-induced cytopathic effect (CCK-8). The conditions noted are these: Vero E6 cells. It is filed as cell-based, Zika virus. How it is done: Cell viability was performed by Cell Counting Kit-8 (CCK-8) (Beyotime, China). Typically, 8×10^4 cells/ml Vero E6 cells were seeded in the wells of 96-well plate at 100 μl/well and grown for 24 h. The compound 1 μl was added to the cells, after which cells were infected with ZIKV at MOI of 0.05. Ribavirin and DMSO were used as positive and negative control, respectively. […] The absorbance at 450 nm was subsequently measured using EnSpire 2300 Multilable Reader (PerkinElmer). The inhibition rate of the tested compounds was calculated with the following equation:
Inhibition rate%=100-[ODtested compound−ODmock−infected cells/ODinfected cells−ODmock−infected cells]×100%
On the technique in general: Damage to the host cells serves as the signal in cytopathic effect assays.

A further data set has as its system Vero E6 cells. In words: cytotoxicity in Vero E6 cells (CCK-8). The conditions noted are these: 0.3125~40 μM. Format: cell-based, African green monkey.
For data set [4], the system named is ZIKV. The data set can be described thus: qRT-PCR of viral RNA in ZIKV-infected Vero E6 cells. The settings on record: dose-dependent. Format: cell-based, Zika virus. On the procedure: To determine the viral RNA number by qRT-PCR, total intracellular RNAs were extracted from the infected cells (control and treated) by treatment with TRIzol reagent (Invitrogen, USA) according to the manufacturer’s protocol. The cDNA was synthesized using Primescript RT Master Kit (Takara, Japan). Level of viral RNA was determined by performing qRT-PCR analysis using SYBR premix Ex Taq II kit (Takara) according to the instructions. The primer sequences used for the Zika virus genes are 5’-[…]-3’ (forward) and 5’-[…]-3’ (reverse). For quantification, the 2^−ΔΔCt method was used to calculate the relative RNA levels against GAPDH.
For orientation: In qPCR the cycle at which signal appears reflects the starting amount.

The subject of data set [5] is ZIKV. In words: western blot of ZIKV NS3 expression in infected Vero E6 cells. It is filed as cell-based, Zika virus. The conditions noted are these: dose-dependent. How it is done: (§1) Vero E6 cells were seeded at a density of 2×10^5 cells per well in 6-well plate. After overnight incubation, 2 µl DMSO (Sigma-Aldrich) or 2 µl chemical compounds were added to each well at the designated concentration. Then cells were infected with ZIKV at MOI of 0.05. Ribavirin and DMSO were used as positive and negative control, respectively. After a further incubation for 72 h at 37°C, cells were lysed with 100 μl of lysis buffer (50mM Tris, 150mM NaCl, 1% NP-40, 0.5% sodium deoxycholate, pH 7.4). Cell lysate was subjected to denaturing gel electrophoresis with 10% Bis-Tris Gel. The proteins were transferred onto PVDF membranes (Millipore, USA) and immunoblotted with indicated antibodies. The following antibodies were used for the detection of proteins: Anti-NS2B antibody (GTX133308, 1:1,000, GeneTex), Anti-NS3 antibody(GTX133320, 1:1,000, GeneTex), Anti-NS4A antibody (GTX133704, 1:1,000, GeneTex), Anti-prM antibody, Anti-β actin antibody (mAbcam 8224, 1:5000, Abcam) was used as a loading control. […]
(§2) Quantification of signals on Western blots was done using the Image pro 10 (Media cybernetics, USA) Imaging and Processing Analysis Software with signaling intensity normalized to loading control. […] Membranes were imaged and quantified in 800 nm channelsin the Odyssey Infrared Imaging System using Odyssey V3.0 software (LI-COR, Lincoln, NE).
(A western blot detects proteins with antibodies after separation by electrophoresis.)

Data set [6] has as its system ZIKV. In words: western blot of viral protein in ZIKV-infected U-87 MG cells. The settings on record: dose-dependent. Format: cell-based, Zika virus.
Data set [7] has as its system ZIKV. In words: time-of-drug-addition assay (qRT-PCR, Vero E6). It is filed as cell-based, Zika virus. The settings on record: ZP10 25 μM or antibody 0.1 μg/ml, Vero E6, 24 hpi. How it is done:
For the pre-treatment group, Vero E6 cells were seeded 12-well plates (2.5×10^5 cells/well). […] Next, Vero E6 cells were washed with PBS once before the addition of mixture. The 600 μl mixture was added into cells for 1 h at 4°C. […] Infected cells were collected at 24 hpi. The cell lysate was collected for viral RNA copies measurement using qRT-PCR. DMSO was included as negative control. The experiments were performed in triplicate and repeated twice for confirmation.

In data set [8] the test system is ZIKV polyprotein precursor cleavage by ZIKVpro. In words: western blot of viral polyprotein precursor processing in ZIKV-infected Vero E6 cells. Format: cell-based, Zika virus. The settings on record: especially at 6.25 µM. How it is done: as §1, §2
Data set [9] deals with CCCC[C@H](NC(=O)c1ccccc1)C(=O)N[C@@H](CCCCN)C(=O)N[C@@H](CCCCN)C(=O)N[C@@H](CCCNC(=N)N)C(=O)Nc1ccc2c(C)cc(=O)oc2c1. The data set can be described thus: purified protein, by the assay type. The settings on record: other: substrate 5 to 320 µM, 150 nM protease, 37 °C, pH 7.5.
Procedure: Proteolytic activity of NS2B-NS3 protease was measured using benzoyl-norleucine-lysine-lysine-arginine 7-amino-4-methylcoumarine (Bz-nKKR-AMC). Bz-nKKR-AMC substrate with starting concentration of 300 μM was serially diluted two times in reaction buffer (50 mM Tris-HCl, pH 7.5, 150 mM NaCl) and added to 96-well black plate (Costar, USA) with 150 nM protein diluted in the same buffer. For kinetics measurements, fluorescence readings were measured at 30 s interval for 5 min using Enspire (Perkin Elmer) at excitation wavelength (λex) at 360 nm and emission wavelength (λem) at 460 nm. Assays were carried out as triplicates at 37 °C. Michaelis-Menten constant (Km) was calculated by graphpad prism5.0.

Entries after “also recorded” stand apart in the source; their conditions may differ. Like-named read-outs stand apart in the source and are kept apart here.

T2 sequence (A0A024B7W1 1417-1468): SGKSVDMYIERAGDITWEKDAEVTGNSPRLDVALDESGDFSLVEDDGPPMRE
T2 sequence (A0A024B7W1 1503-1679): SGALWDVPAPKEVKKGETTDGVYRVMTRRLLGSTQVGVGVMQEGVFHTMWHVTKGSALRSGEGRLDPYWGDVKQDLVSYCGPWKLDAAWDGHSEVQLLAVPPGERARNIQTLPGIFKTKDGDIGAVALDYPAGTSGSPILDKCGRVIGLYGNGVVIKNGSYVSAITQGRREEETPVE
T1 sequence (A0A024B7W1 1417-1468): as the sequence (A0A024B7W1 1417-1468) above
T1 sequence (A0A024B7W1 1503-1679): as the sequence (A0A024B7W1 1503-1679) above

`O=C1c2c(O)ccc([N+](=O)[O-])c2C(=O)c2c([N+](=O)[O-])ccc(O)c21` [ARDP006]: in the data set on dengue virus, the EC50 is 4.2 µM. Further, the IC50 at viral proteinase NS2B/3 is 432 µM.
For the compound `O=c1cc(-c2ccc(O)cc2)oc2cc(O)cc(O)c12` [Apigenin], the IC50 in the data set on ZIKVpro (ref Roy et al.) was 56.3 µM.
Consider `O=c1c(O)c(-c2cc(O)c(O)c(O)c2)oc2cc(O)cc(O)c12` [Myricetin, myricetin], for which the IC50 is 48.7 µM in data set [1], 22 µM in the data set on ZIKVpro (ref Lim et al.) and 1.3 µM in the data set on ZIKVpro (ref Roy et al.).
With `O=C(OC[C@H]1O[C@@H](OC(=O)c2cc(O)c(O)c(OC(=O)c3cc(O)c(O)c(O)c3)c2)[C@H](OC(=O)c2cc(O)c(O)c(OC(=O)c3cc(O)c(O)c(O)c3)c2)[C@@H](OC(=O)c2cc(O)c(O)c(OC(=O)c3cc(O)c(O)c(O)c3)c2)[C@@H]1OC(=O)c1cc(O)c(O)c(OC(=O)c2cc(O)c(O)c(O)c2)c1)c1cc(O)c(O)c(OC(=O)c2cc(O)c(O)c(O)c2)c1` [ZP3, tannic acid], in data set [2], the “binding to ZIKVpro in Octet assay” value is given as “direct binding” and the “Response (Octet binding assay)” value is on record as 0.1091.
Turning to `Cc1cc2c(C(C)C)c(O)c(O)c(C=O)c2c(O)c1-c1c(C)cc2c(C(C)C)c(O)c(O)c(C=O)c2c1O` [ZP4], in data set [1], the inhibition at 20 µM amounted to 59.7%. In addition, the “Response (Octet binding assay)” value in [2] is listed as -0.046.
Regarding `CCCCCCCCCCCCCc1cccc(O)c1C(=O)O` [ZP9], in data set [1], the half-inhibitory concentration (IC50) turned out to be 1.42 µM and the inhibition at 20 µM was 82.2%. The “Response (Octet binding assay)” value in data set [2] is -0.0005.
For the compound `O=C(OC1Cc2c(O)cc(O)cc2OC1c1cc(O)c(=O)c2c(O)c(O)cc(C3Oc4cc(O)cc(O)c4CC3OC(=O)c3cc(O)c(O)c(O)c3)c2c1)c1cc(O)c(O)c(O)c1` (stereo not shown) [ZP10, theaflavin-3,3’-digallate], in the data set with ZIKV [3] (72 hpi, ZP10 6.25 µM to 25.0 µM), the “ZIKV-induced CPE (cell morphology)” value is on record as “attenuated to a large extent”. Besides, the EC50 with ZIKV [3] (Zika virus, Vero C1008, MOI 0.05, CCK-8 read-out, read-out: EC50 of inhibition of ZIKV replication (CPE protection)) worked out at 7.65 µM. Further, the “cytotoxicity (cell viability, CCK-8)” value with Vero E6 cells is “minor cytotoxicity up to 40 μM; also recorded: low cytotoxicity”. Moreover, the “viral RNA copy numbers” value in the data set with ZIKV [4] is “markedly reduced”. Also, the NS3 protein expression result in the data set with ZIKV [5] is recorded as “markedly reduced”. Also, in the data set on ZIKV [6], the “viral protein expression (NS3 and envelope)” value is recorded as “considerably reduces”. Further, the “effect on ZIKV entry / replication when added before or after virus adsorption (0–1 hpi)” value in the data set with ZIKV [7] is recorded as “no effect of ZP10 on ZIKV entry”. The “cleavage processing of polyprotein precursor (PP)” value in [8] is “impaired cleavage processing of PP”.
Take “ZIKV NS2B-NS3 protease (ZIKVpro) (Zika virus ZIKV/H. sapiens/FrenchPolynesia/10087PF/2013)”: the Km in data set [9] was 30.51 µM.
In turn, merbromin [ZP1] gave an IC50 in data set [1] of 9.18 µM. For the same compound, in [2], the “binding to ZIKVpro in Octet assay” value is “direct binding” and the “Response (Octet binding assay)” value was 1.0863.

A word on the EC50: it is the concentration giving half of the maximal effect. Usually IC50 stands for the concentration that inhibits the measured activity by half. Broadly, the inhibition is the relative decrease from the control value, in per cent. The Km is the concentration of substrate that gives half-maximal velocity.
